Assay results published in patent US20230285380A1, “DUAL TREATMENT OF MIGRAINE” (priority 2021, published 2023).

Legend:
[1] = system: patients with episodic and chronic migraine; assay: BHV3000-305 Phase 2/3 randomized, double-blind, placebo-controlled study of rimegepant in migraine prevention (NCT03732638): efficacy; assay type: in vivo, human
Description: Clinical Trial—BHV3000-305: A Phase ⅔, Randomized, Double-blind, Placebo-controlled Study to Evaluate the Efficacy and Safety of Rimegepant in Migraine Prevention (ClinicalTrials.gov Identifier: NCT03732638).
A phase ⅔ clinical study was conducted with 1629 participants, as follows.
The purpose of this is study is to compare the efficacy of BHV-3000 (rimegepant) to placebo as a preventive treatment for migraine, as measured by the reduction in the number of migraine days per month.
Study Design • Study Type: Interventional (Clinical Trial) • Actual Enrollment: 1629 participants • Allocation: Randomized • Intervention Model: Parallel Assignment • Masking: Triple (Participant, Care Provider, Investigator) • Primary Purpose: Prevention • Official Title: A Phase ⅔, Randomized, Double-blind, Placebo-controlled Study to Evaluate the Efficacy and Safety of Rimegepant in Migraine Prevention • Actual Study Start Date: Nov. 14, 2018 • Actual Primary Completion Date: Dec. 10, 2019 • Estimated Study Completion Jan. 30, 2021 • Date:
Primary Outcome Measures: • 1. Change from baseline in mean number of migraine days per month [Time Frame: Mean number of migraine days per month as assessed over 3 months (12 weeks)] Change from baseline in mean number of migraine days per month as measured over the 12-week double-blind phase of the study.
Secondary Outcome Measures: • 1. Achievement of at least a 50% reduction from baseline in mean number of moderate to severe monthly migraine days. [Time Frame: baseline to end of Week 12] Achievement of at least a 50% reduction from baseline in mean number of moderate to severe monthly migraine days over course of the double-blind treatment phase. • 2. The mean number of rescue medication days per month. [Time Frame: baseline to end of week 12 as measure per month] The mean number of rescue medication days per month over the course of the double-blind, treatment phase. Rescue medications include the rescue medications defined in this protocol. • 3. Adverse events. [Time Frame: baseline to end of Week 12] Adverse events that occur in at least 5% of treated subjects; the frequency of unique subjects with serious adverse events, adverse events leading to discontinuation and clinically significant laboratory abnormalities, as reported on case report forms. • 4. The frequency of AST or ALT elevations. [Time Frame: baseline to end of Week 12] The frequency of AST or ALT elevations >3×ULN, concurrently with bilirubin elevations >2× ULN, will be assessed by tabulating the number of unique subjects with this pairing of events. • 5. The frequency of hepatic-related adverse events and hepatic-related treatment. [Time Frame: baseline to end of Week 12] The frequency of hepatic-related adverse events and hepatic-related treatment discontinuations will be tabulated from case report forms and will be based on unique subjects reporting such events. • 6. The mean change from baseline in the MSQ role function [Time Frame: baseline to end of Week 12] The mean change from baseline in the MSQ role function—restrictive domain score at Week 12 of the double-blind treatment phase. • 7. The mean change from baseline in the MIDAS total score. [Time Frame: baseline to end of Week 12]
The mean change from baseline in the MIDAS total score at Week 12 of the double-blind treatment phase.
This pivotal study enrolled patients with both episodic and chronic migraine. The study evaluated the efficacy and safety of rimegepant 75 mg (n=370) dosed every other day for the preventive treatment of migraine in patients versus placebo (n=371) who had migraine for at least one year and 4 to 18 moderate to severe migraine attacks per month over three months prior to enrollment. During the one-month observation period, patients experienced on average 10.7 migraine days per month, with 7.4 migraine days of moderate to severe migraine during the same period.

[2] = system: patients with moderate to severe intensity migraine; assay: large open-label Phase 2 trial of rimegepant; assay type: in vivo, human
From the text: The goal of our strategy is to deliver one medication to address patients' needs for treating their migraines.

[3] = BHV3000-305 study: adverse events and liver safety on double-blind treatment
[4] = 370 patients, rimegepant 75 mg every other day
[5] = Severity: Mild, Treated Subjects N = 370
[6] = Severity: Moderate or Severe, Treated Subjects N = 370
[7] = Severity: Moderate, Treated Subjects N = 370
[8] = Severity: Total, Treated Subjects N = 370

## N[C@@H]1c2cccnc2[C@H](OC(=O)N2CCC(n3c(=O)[nH]c4ncccc43)CC2)CC[C@H]1c1cccc(F)c1F [Rimegepant, [(5S,6S,9R)-5-amino-6-(2,3-difluorophenyl)-6,7,8,9-tetrahydro-5H-cyclohepta[b]pyridin-9-yl] 4-(2-oxo-3H-imidazo[4,5-b]pyridin-1-yl)piperidine-1-carboxylate]
[1]; 95% CI (0.23, 6.70), P-value 0.0358
  MSQoL Restrictive Role Function Domain Score Change From Baseline at Week 12, Difference (Rimegepant − Placebo): 3.5
[1]; 95% CI (−0.6, 14.1), P-value 0.0734
  >=50% Reduction in Moderate or Severe Migraine Days per Month in Last Month, Stratified Risk Difference (Rimegepant − Placebo): 6.7
[1]; 95% CI (−0.80, 0.31), P-value 0.3868
  Rescue Medication Days per Month in Last Month, Difference (Rimegepant − Placebo): −0.2 Days per Month
[1]; 95% CI (−1.23, −0.17), P-value 0.0094
  Change From OP in Mean Number of Total Migraine Days per Month Overall, Difference (Rimegepant − Placebo): −0.7 Days per Month
[1]; 95% CI (−1.42, −0.14), P-value 0.0176, significant in hierarchical testing
  Change From OP in Mean Number of Total Migraine Days per Month in Last Month, Difference (Rimegepant − Placebo): −0.8 Days per Month
[1]; 95% CI (−1.49, −0.36), P-value 0.0013
  Change From OP in Mean Number of Total Migraine Days per Month In First Month, Difference (Rimegepant − Placebo): −0.9 Days per Month
[1]; 95% CI (−4.74, 4.51), P-value 0.9616
  MIDAS Total Score Change From Baseline at Week 12, Difference (Rimegepant − Placebo): −0.1
[1]; evaluable mITT
  >=50% Reduction From OP in Mean Number of Moderate or Severe Migraine Days per Month in Last Month, Response Rate (n/N): 167/348
[1]; evaluable mITT N = 348, 75 mg every other day, 95% CI (−4.95, −3.97)
  Primary Endpoint: Change From OP in Mean Number of Total Migraine Days per Month in Last Month, Least-squares mean: −4.5 Days per Month
[1]; evaluable mITT N = 348, 95% CI (3.29, 4.15)
  Rescue Medication Days per Month in Last Month, Least-squares mean: 3.7 Days per Month
[1]; evaluable mITT N = 348, 95% CI (−3.04, −2.17)
  Change From OP in Mean Number of Total Migraine Days per Month In First Month, Least-squares mean: −2.6 Days per Month
[1]; evaluable mITT N = 348, 95% CI (−3.94, −3.12)
  Change From OP in Mean Number of Total Migraine Days per Month Overall, Least-squares mean: −3.5 Days per Month
[1]; n 269, 95% CI (15.54, 20.56)
  MSQoL Restrictive Role Function Domain Score Change From Baseline at Week 12, Least-squares mean: 18.0
[1]; n 269, 95% CI (−15.41, −8.21)
  MIDAS Total Score Change From Baseline at Week 12, Least-squares mean: −11.8
[1]; participants not taking concomitant preventive treatment
  reduction in mean number of migraine days as compared to placebo, (4.9-3.7)/3.7*100: 32%
[1]; rimegepant 75 mg every other day, vs 3.7 day in placebo group, p=0.0176
  reduction from baseline in monthly migraine days: 4.5 days
[1]; rimegepant group n=273, vs 3.7 day in placebo group (n=269)
  reduction from baseline in monthly migraine days, participants not taking concomitant preventive treatment: 4.9 days
[1]; stratified by prophylactic migraine medication use, 95% CI (42.7, 53.2)
  >=50% Reduction From OP in Mean Number of Moderate or Severe Migraine Days per Month in Last Month, Stratified Risk: 48.0
[1]; vs 41% in the placebo group
  share of group with at least a 50% reduction from baseline in the mean number of moderate to severe migraine days per month: 48%
[2]
  reduction in migraine days per month: ≤ 5.3 days
[3]; [4]
  cases of ALT or AST >3×ULN and bilirubin >2×ULN: no cases
  independent liver monitoring panel assessment of ALT/AST elevations: did not determine any ALT/AST elevations to be in the categories of probably or definitely related to study drug
  safety profile: consistent with prior clinical trial experience
[3]; [5]
  Enterobiasis: 0 n
  Folliculitis: 0 n
  Oral candidiasis: 0 n
  Orchitis: 0 n
  Otitis media: 0 n
[3]; [6]
  Acute sinusitis: 0 n
  Appendicitis: 0 n
  Bacterial vaginosis: 0 n
  Herpes zoster: 0 n
  Pharyngitis streptococcal: 0 n
  Pneumonia: 0 n
  Pyelonephritis: 0 n
  Sepsis: 0 n
[3]; [7]
  Acute sinusitis: 0 n
  Appendicitis: 0 n
  Bacterial vaginosis: 0 n
  Herpes zoster: 0 n
  Pharyngitis streptococcal: 0 n
  Sepsis: 0 n
[3]; [8]
  Acute sinusitis: 0 n
  Appendicitis: 0 n
  Enterobiasis: 0 n
  Folliculitis: 0 n
  Oral candidiasis: 0 n
  Orchitis: 0 n
  Otitis media: 0 n
  Pelvic inflammatory disease: 0 n
  Pertussis: 0 n
  Pharyngitis streptococcal: 0 n
  Pneumonia: 0 n
  Pyelonephritis: 0 n
  Sepsis: 0 n
  Tooth infection: 0 n
